From publication PMC7658267, “Effects of CYP46A1 Inhibition on Long-Term-Depression in Hippocampal Slices ex vivo and 24S-Hydroxycholesterol Levels in Mice in vivo” (Frontiers in Molecular Neuroscience, 2020)
pIC50: −log10 of the molar value.

What was measured:
CYP46A1 [1] = target: T1, CYP46A1 (Homo sapiens, UniProt Q9Y6A2); assay: recombinant human CYP46A1 microsomes, cholesterol to 24-hydroxycholesterol, LC-MS/MS ([…] with testosterone as substrate); type: biochemical
CYP46A1 [2] = target: T1, CYP46A1; assay: turnover to 24-hydroxycholesterol by human CYP46A1 microsomes, LC-MS/MS; type: biochemical

T1 sequence (Q9Y6A2 whole entry): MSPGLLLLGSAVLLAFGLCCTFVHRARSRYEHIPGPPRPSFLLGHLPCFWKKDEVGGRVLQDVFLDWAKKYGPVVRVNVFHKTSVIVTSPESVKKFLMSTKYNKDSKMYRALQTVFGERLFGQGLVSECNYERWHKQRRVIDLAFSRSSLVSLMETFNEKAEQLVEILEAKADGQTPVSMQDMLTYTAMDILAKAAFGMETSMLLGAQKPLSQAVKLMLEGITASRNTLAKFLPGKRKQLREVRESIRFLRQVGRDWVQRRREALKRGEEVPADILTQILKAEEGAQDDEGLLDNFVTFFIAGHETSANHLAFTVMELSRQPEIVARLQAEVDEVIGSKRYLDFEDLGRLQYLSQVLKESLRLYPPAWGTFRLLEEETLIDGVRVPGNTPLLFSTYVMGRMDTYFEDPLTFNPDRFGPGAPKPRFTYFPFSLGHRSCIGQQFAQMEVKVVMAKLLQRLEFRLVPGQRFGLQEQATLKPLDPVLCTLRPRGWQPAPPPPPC

Row | SMILES | pIC50 (CYP46A1 [1]) | turnover to 24-hydroxycholesterol by human CYP46A1 microsomes, LC-MS/MS (CYP46A1 [2])
1 | C[C@@H](c1ncncc1F)[C@](O)(Cn1cncn1)c1ccc(F)cc1F [Voriconazole] | 4.91 | 
2 | CC(C)CCC[C@@H](C)[C@H]1CC[C@H]2[C@@H]3CC=C4C[C@@H](O)CC[C@]4(C)[C@H]3CC[C@]12C [cholesterol] |  | We also developed an in vitro assay using cholesterol as a substrate.
